Reference: patent US4797395A, “1-Acyloxyalkyl esters of cephalosporin” (Takeda Chemical Industries, Ltd., priority 1983, dated 1989)
Structures can show the parent of a compound that is named as a salt. Where two headings read alike, the source gives them in different places.

Columns and labels:
[1] = mouse, in vivo
Method: The compounds of Examples (compound Nos. 1, 2, 3, 4, 5, 6, 7 and 8) and, as a control compound, the pivaloyloxymethyl ester of compound [II] (hereinafter referred to briefly as compound A) are administered orally to mice, each compound to one animal, in the dose of 100 mg/kg in terms of the non-ester, i.e. compound [II]. At 0.25, 0.5, 1.0 and 2.0 hours after administration, the concentration of compound [II] in the plasma of each mouse is measured by the cup method using Proteus mirabilis Eb 313 as the test organism and the area under plasma concentration-time curve from zero to 2 hours (AUC) is calculated. As a control, compound [II] is subcutaneously administered to a mouse and the AUC value is calculated as above. The bioavailability is calculated by means of the following equation. [formula]

Staphylococcus aureus = conditions: gram-positive; Antimicrobial Agent and Chemotherapy 14, 557-568 (1978); cited from earlier work
Escherichia coli = conditions: gram-negative; Antimicrobial Agent and Chemotherapy 14, 557-568 (1978); cited from earlier work
Klebsiella pneumoniae = conditions: gram-negative; Antimicrobial Agent and Chemotherapy 14, 557-568 (1978); cited from earlier work
Proteus vulgaris = conditions: gram-negative; Antimicrobial Agent and Chemotherapy 14, 557-568 (1978); cited from earlier work
Proteus mirabilis = conditions: gram-negative; Antimicrobial Agent and Chemotherapy 14, 557-568 (1978); cited from earlier work
Proteus morganii = conditions: gram-negative; Antimicrobial Agent and Chemotherapy 14, 557-568 (1978); cited from earlier work

Bioavailability ([1]; 100 mg/kg, 120 min) [%] | Plasma level of non-ester (compound [II]), 0.25 hr ([1]; po, 100 mg/kg, 15 min) [ng/mL] | Plasma level of non-ester (compound [II]), 0.5 hr ([1]; po, 100 mg/kg, 30 min) [ng/mL] | Plasma level of non-ester (compound [II]), 1.0 hr ([1]; po, 100 mg/kg, 60 min) [ng/mL] | AUC ([1]; po, 100 mg/kg, 120 min) [ng·h/mL] | Plasma level of non-ester (compound [II]), 2.0 hr ([1]; po, 100 mg/kg, 120 min) [ng/mL] | Plasma level of non-ester (compound [II]), 0.25 hr ([1]; sc, 0.25 h) [ng/mL] | Plasma level of non-ester (compound [II]), 0.5 hr ([1]; sc, 0.5 h) [ng/mL] | Plasma level of non-ester (compound [II]), 1.0 hr ([1]; sc, 1 h) [ng/mL] | Bioavailability ([1]; sc, 120 min) [%] | Plasma level of non-ester (compound [II]), 2.0 hr ([1]; sc, 2 h) [ng/mL] | Structure (SMILES) | antibacterial activity (Staphylococcus aureus) | antibacterial activity (Escherichia coli) | antibacterial activity (Klebsiella pneumoniae) | antibacterial activity (Proteus vulgaris) | antibacterial activity (Proteus mirabilis) | antibacterial activity (Proteus morganii)
94.4 | 66300 | 34500 | 8900 | 36600 | 900 |  |  |  |  |  | CC(C)C(OC(=O)C1=C(CSc2nnnn2CCN(C)C)CS[C@@H]2[C@H](NC(=O)Cc3csc(N)n3)C(=O)N12)OC(=O)C1CCCCC1.Cl.Cl (stereo partly drawn) [Compound No. 1, 1-(Cyclohexylcarbonyloxy)-2-methylpropyl 7β-[2-(2-aminothiazol-4-yl)acetamido]-3-[[[1-(2-dimethylaminoethyl) -1H-tetrazol-5-yl]thio]methyl]ceph-3-em-4-carboxylate dihydrochloride] |  |  |  |  |  | 
88.9 | 36400 | 30000 | 17000 | 34500 | 3200 |  |  |  |  |  | CCCCC(=O)OC(OC(=O)C1=C(CSc2nnnn2CCN(C)C)CS[C@@H]2[C@H](NC(=O)Cc3csc(N)n3)C(=O)N12)C1CCCCC1.Cl.Cl (stereo partly drawn) [Compound No. 7, 1-n-Pentanoyloxy-1-cyclohexylmethyl 7β-[2-(2-aminothiazol-4-yl)acetamido]-3-[[[1-(2-dimethylaminoethyl)-1H-tetrazol-5-yl]thio]methyl]ceph-3-em-4-carboxylate dihydrochloride] |  |  |  |  |  | 
103.5 | 50000 | 39600 | 15600 | 40200 | 2330 |  |  |  |  |  | CCCC(=O)OC(OC(=O)C1=C(CSc2nnnn2CCN(C)C)CS[C@@H]2[C@H](NC(=O)Cc3csc(N)n3)C(=O)N12)C1CCCCC1 (stereo partly drawn) [Compound No. 8, 1-n-Butyryloxy-1-cyclohexylmethyl 7β-[2-(2-aminothiazol-4-yl)acetamido]-3-[[[1-(2-dimethylaminoethyl) -1H-tetrazol-5-yl]thio]methyl]ceph-3-em-4-carboxylate dihydrochloride] |  |  |  |  |  | 
107.8 | 46100 | 32200 | 21200 | 41900 | 4700 |  |  |  |  |  | CN(C)CCn1nnnc1SCC1=C(C(=O)OC(OC(=O)C2CCCCC2)C2CCCCC2)N2C(=O)[C@@H](NC(=O)Cc3csc(N)n3)[C@H]2SC1.Cl.Cl (stereo partly drawn) [compound 2, 1-(Cyclohexylcarbonyloxy)-1-cyclohexylmethyl 7β-[2-(2-aminothiazol-4-yl)acetamido]-3-[[[1-(2-dimethylaminoethyl) -1H-tetrazol-5-yl]thio]methyl]ceph-3-em-4-carboxylate dihydrochloride] |  |  |  |  |  | 
86.4 | 59500 | 25000 | 11700 | 33500 | 1000 |  |  |  |  |  | CCC(OC(=O)C1=C(CSc2nnnn2CCN(C)C)CS[C@@H]2[C@H](NC(=O)Cc3csc(N)n3)C(=O)N12)OC(=O)C1CCCCC1.Cl.Cl (stereo partly drawn) [compound 3, 1-(Cyclohexylcarbonyloxy)propyl 7β-[2-(2-amino-thiazol-4-yl)acetamido]-3-[[[1-(2-dimethylaminoethyl) -1H-tetrazol-5-yl]thio]methyl]ceph-3-em-4-carboxylate dihydrochloride] |  |  |  |  |  | 
98.8 | 47000 | 38400 | 14400 | 38400 | 2800 |  |  |  |  |  | CCCC(OC(=O)C1=C(CSc2nnnn2CCN(C)C)CS[C@@H]2[C@H](NC(=O)Cc3csc(N)n3)C(=O)N12)OC(=O)C1CCCCC1.Cl.Cl (stereo partly drawn) [compound 4, 1-(Cyclohexylcarbonyloxy)butyl 7β-[2-(2-aminothiazol-4-yl)acetamido]-3-[[[1-(2-dimethylaminoethyl) -1H-tetrazol-5-yl]thio]methyl]ceph-3-em-4-carboxylate dihydrochloride] |  |  |  |  |  | 
41.8 | 21000 | 16200 | 6100 |  | 600 |  |  |  |  |  | CN(C)CCn1nnnc1SCC1=C(C(=O)OCOC(=O)C(C)(C)C)N2C(=O)[C@@H](NC(=O)Cc3csc(N)n3)[C@H]2SC1 [compound A, reference compound] |  |  |  |  |  | 
 |  |  |  |  |  | 69200 | 29000 | 13200 | 100 | 1500 | CN(C)CCn1nnnc1SCC1=C(C(=O)O)N2C(=O)[C@@H](NC(=O)Cc3csc(N)n3)[C@H]2SC1 [compound [II]] | potent antibacterial activity | potent antibacterial activity | potent antibacterial activity | potent antibacterial activity | potent antibacterial activity | potent antibacterial activity

Structure (SMILES) | Bioavailability ([1]; 100 mg/kg, 120 min) [%] | Plasma level of non-ester (compound [II]), 0.25 hr ([1]; po, 100 mg/kg, 15 min) [ng/mL] | Plasma level of non-ester (compound [II]), 0.5 hr ([1]; po, 100 mg/kg, 30 min) [ng/mL] | Plasma level of non-ester (compound [II]), 1.0 hr ([1]; po, 100 mg/kg, 60 min) [ng/mL] | AUC ([1]; po, 100 mg/kg, 120 min) [ng·h/mL] | Plasma level of non-ester (compound [II]), 2.0 hr ([1]; po, 100 mg/kg, 120 min) [ng/mL] | Plasma level of non-ester (compound [II]), 0.25 hr ([1]; sc, 0.25 h) [ng/mL] | Plasma level of non-ester (compound [II]), 0.5 hr ([1]; sc, 0.5 h) [ng/mL] | Plasma level of non-ester (compound [II]), 1.0 hr ([1]; sc, 1 h) [ng/mL] | Bioavailability ([1]; sc, 120 min) [%] | Plasma level of non-ester (compound [II]), 2.0 hr ([1]; sc, 2 h) [ng/mL] | antibacterial activity (Staphylococcus aureus) | antibacterial activity (Escherichia coli) | antibacterial activity (Klebsiella pneumoniae) | antibacterial activity (Proteus vulgaris) | antibacterial activity (Proteus mirabilis) | antibacterial activity (Proteus morganii)
CC(C)C(OC(=O)CC1CCCCC1)OC(=O)C1=C(CSc2nnnn2CCN(C)C)CS[C@@H]2[C@H](NC(=O)Cc3csc(N)n3)C(=O)N12.Cl.Cl (stereo partly drawn) [compound 5, 1-(Cyclohexylacetoxy)-2-methylpropyl 7β-[2-(2-aminothiazol-4-yl)acetamido]-3-[[[1-(2-dimethylaminoethyl) 1H-tetrazol-5-yl]thio]methyl]ceph-3-em-4-carboxylate dihydrochloride] | 88.8 | 29200 | 46700 | 11100 | 34500 | 2600 |  |  |  |  |  |  |  |  |  |  | 
